{
  "source": "patent US20180280480A1",
  "about": "“COMPOSITIONS AND PEPTIDES HAVING DUAL GLP-1R AND GLP-2R AGONIST ACTIVITY” (priority 2014, published 2018)",
  "key": {"[1]": {"system": "C57BL/6J mice", "text": "The subcutaneous injections were placed at the lower back. On study day 8, the mice were terminated and the GI tract was removed for weight determination."}, "[2]": {"system": "C57BL/6J mice", "test": "Gut proliferation in C57BL/6J mice, PoC study 2 (liraglutide and teduglutide)", "assay_type": "in vivo", "from_the_text": "(§1) Forty (40, n=10, 4 groups) male C57BL/6J mice obtained from Taconic, Denmark, were used. At the time of the experiment, the mice had reached an age of 9-10 weeks. The mice were acclimatized for one week in their new environment and offered regular chow diet (Altromin 1324, Brogaarden A/S, Denmark) and domestic quality tap water. Animals were housed two per cage during the study, in a light-, temperature-, and humidity-controlled room (12-hour light: 12-hour dark cycle, lights on/off at 4 AM/4 PM hour; 22±1° C.; 50±10% relative humidity). […] Animals were uniquely identified with implantable microchips (Pet ID Microchip, E-vet) in all mice upon arrival. Animals were identified using the WS-2 weight station (MBrose ApS, Faaborg, Denmark) connected to a laptop running the HM02Lab software (Ellegaard Systems, Faaborg, Denmark). The HM02Lab software matches the body weight with ID and calculates the dose directly based on the body weight. All mice were handled for 3 days prior to the experiment to acclimatize the animals to handling and injections."}, "[3]": {"target": "T1, GLP-2R (Homo sapiens, UniProt O95838)", "T1 sequence (O95838 1-553)": "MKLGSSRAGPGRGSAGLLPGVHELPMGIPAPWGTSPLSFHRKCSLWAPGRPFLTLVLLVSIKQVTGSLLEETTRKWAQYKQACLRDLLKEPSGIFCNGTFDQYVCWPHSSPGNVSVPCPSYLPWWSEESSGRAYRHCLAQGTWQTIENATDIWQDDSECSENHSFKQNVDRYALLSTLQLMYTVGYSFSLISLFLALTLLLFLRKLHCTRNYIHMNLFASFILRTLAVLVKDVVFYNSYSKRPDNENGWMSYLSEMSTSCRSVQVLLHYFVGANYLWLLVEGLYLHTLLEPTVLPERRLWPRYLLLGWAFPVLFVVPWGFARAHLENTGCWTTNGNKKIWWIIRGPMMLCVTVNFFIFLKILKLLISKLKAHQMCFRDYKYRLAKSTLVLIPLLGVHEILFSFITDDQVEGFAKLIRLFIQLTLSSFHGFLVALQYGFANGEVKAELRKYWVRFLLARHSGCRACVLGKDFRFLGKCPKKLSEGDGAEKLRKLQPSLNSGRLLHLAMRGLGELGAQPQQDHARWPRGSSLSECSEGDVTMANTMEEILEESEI", "test": "GLP2 receptor efficacy assay (in vitro functional screen, Euroscreen or DiscoveRx)", "settings": "EC50 of native GLP-2 / EC50 of compound"}, "[4]": {"system": "C57BL/6J mice", "test": "GLP1R-GLP2R dual agonist compound study: cumulative food intake", "assay_type": "in vivo", "settings": "Day 0-7; 3.0 mg/kg BID SC; mean ± S.E.M.", "from_the_text": "as §1"}, "[5]": {"system": "C57BL/6J mice", "test": "GLP1R-GLP2R dual agonist compound study: gut wet weight", "assay_type": "in vivo", "settings": "Day 8; 3.0 mg/kg BID SC; mean ± S.E.M.", "from_the_text": "On study day 8, the mice were terminated and the GI tract was removed for determination of the gut wet weight. The gut wet weight results are listed below in Table 12."}, "[6]": {"system": "C57BL/6J mice", "test": "GLP1R-GLP2R dual agonist compound study: oral glucose tolerance test", "assay_type": "in vivo", "settings": "Day 7; 3.0 mg/kg BID SC; glucose 2 g/kg oral; mean ± S.E.M.", "procedure": "On day 7, an oral glucose tolerance test (OGTT) was performed. Animals were mildly fasted as all food was removed 4 hours prior to the oral glucose load. Vehicle (SC) and compounds were administered subcutaneously (SC) 2 hours prior to the OGTT. At t=0 mice received an oral glucose load (2 g/kg; 4 ml/kg; 500 mg/ml, Fresenius Kabi, Sweden). Glucose was given as gavage via a gastrically-placed tube connected to a syringe ensuring accurate dosing. Blood glucose was measured from tail vein blood before glucose (at t=−120 and 0 min, baseline) and after glucose administration at t=15, 30, 60 and 120 min. Blood samples (tail vein) was collected into 10 μl heparinized glass capillary tubes and immediately suspended in buffer (0.5 ml of glucose/lactate system solution (EKF-diagnostics, Germany) and analyzed for glucose on the test day using a BIOSEN c-Line glucose meter (EKF-diagnostics, Germany) according to manufacturer's instructions. Results from the OGTT are listed below in Table 11."}, "[7]": {"target": "T2, human GLP-1 receptor (human, UniProt P43220 24-463, limits assumed)", "test": "cell-based or functional assay"}, "[8]": {"target": "T3, human GLP-2 receptor (human, UniProt O95838 1-553, limits assumed)", "T3 sequence (looked up)": "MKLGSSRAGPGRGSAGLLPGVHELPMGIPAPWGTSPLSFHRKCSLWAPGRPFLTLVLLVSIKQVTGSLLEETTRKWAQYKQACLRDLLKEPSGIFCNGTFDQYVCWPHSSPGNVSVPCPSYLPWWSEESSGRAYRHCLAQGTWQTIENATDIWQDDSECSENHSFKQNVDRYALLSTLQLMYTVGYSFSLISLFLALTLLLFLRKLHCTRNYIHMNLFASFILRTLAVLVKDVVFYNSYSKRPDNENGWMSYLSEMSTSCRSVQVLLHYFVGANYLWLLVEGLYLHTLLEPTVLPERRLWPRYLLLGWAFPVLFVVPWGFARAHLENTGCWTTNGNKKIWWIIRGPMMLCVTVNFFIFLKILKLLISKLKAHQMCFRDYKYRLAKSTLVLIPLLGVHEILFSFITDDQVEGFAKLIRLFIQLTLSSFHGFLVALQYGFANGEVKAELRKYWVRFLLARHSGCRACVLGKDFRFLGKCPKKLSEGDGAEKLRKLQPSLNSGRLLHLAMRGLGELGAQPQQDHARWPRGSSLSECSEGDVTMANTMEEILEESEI", "test": "cell-based or functional assay"}, "[9]": {"target": "T2, human GLP-1 receptor", "test": "cell-based or functional assay", "remark": "listed apart in the source"}, "[10]": {"target": "T3, human GLP-2 receptor", "test": "cell-based or functional assay", "remark": "listed apart in the source"}, "[11]": {"settings": "Day 8, BID SC, liraglutide 0.2 mg/kg, teduglutide 1.0 mg/kg, alone or combined, mean ± S.E.M."}},
  "note": "Read-outs that look alike come from different tables or passages of the source. Ends that are not written are not given here.",
  "data": [
    {"molecule": "CC[C@H](C)[C@H](NC(=O)[C@H](Cc1ccccc1)NC(=O)[C@H](CC(=O)O)NC(=O)[C@H](CCCNC(=N)N)NC(=O)[C@H](C)NC(=O)[C@H](C)NC(=O)[C@H](CC(C)C)NC(=O)[C@H](CC(N)=O)NC(=O)[C@H](CC(=O)O)NC(=O)[C@H](CC(C)C)NC(=O)[C@@H](NC(=O)[C@@H](NC(=O)[C@H](CC(N)=O)NC(=O)[C@H](CCSC)NC(=O)[C@H](CCC(=O)O)NC(=O)[C@H](CC(=O)O)NC(=O)[C@H](CO)NC(=O)[C@H](Cc1ccccc1)NC(=O)[C@H](CO)NC(=O)CNC(=O)[C@H](CC(=O)O)NC(=O)[C@H](C)NC(=O)[C@@H](N)Cc1c[nH]cn1)[C@@H](C)O)[C@@H](C)CC)C(=O)N[C@@H](CC(N)=O)C(=O)N[C@@H](Cc1c[nH]c2ccccc12)C(=O)N[C@@H](CC(C)C)C(=O)N[C@H](C(=O)N[C@@H](CCC(N)=O)C(=O)N[C@H](C(=O)N[C@@H](CCCCN)C(=O)N[C@H](C(=O)N[C@H](C(=O)N[C@@H](CC(=O)O)C(=O)O)[C@@H](C)O)[C@@H](C)CC)[C@@H](C)O)[C@@H](C)CC", "note": "[GLP-2]", "values": [
      {"measurement": "Total intestine weight", "setting": "[1]; Day 8, 3 mg/kg BID SC, female C57BL/6J mice, mean ± S.E.M.", "result": "1256 ± 30.1", "unit": "mg"},
      {"measurement": "increase in intestinal weight compared to vehicle", "setting": "[1]; seven days of dosing, 3.0 mg/kg each BID SC", "result": "approx. 25%"}
    ]},
    {"molecule": "CC[C@H](C)[C@H](NC(=O)[C@H](Cc1ccccc1)NC(=O)[C@H](CC(=O)O)NC(=O)[C@H](CCCNC(=N)N)NC(=O)[C@H](C)NC(=O)[C@H](C)NC(=O)[C@H](CC(C)C)NC(=O)[C@H](CC(N)=O)NC(=O)[C@H](CC(=O)O)NC(=O)[C@H](CC(C)C)NC(=O)[C@@H](NC(=O)[C@@H](NC(=O)[C@H](CC(N)=O)NC(=O)[C@H](CCSC)NC(=O)[C@H](CCC(=O)O)NC(=O)[C@H](CC(=O)O)NC(=O)[C@H](CO)NC(=O)[C@H](Cc1ccccc1)NC(=O)[C@H](CO)NC(=O)CNC(=O)[C@H](CC(=O)O)NC(=O)CNC(=O)[C@@H](N)Cc1c[nH]cn1)[C@@H](C)O)[C@@H](C)CC)C(=O)N[C@@H](CC(N)=O)C(=O)N[C@@H](Cc1c[nH]c2ccccc12)C(=O)N[C@@H](CC(C)C)C(=O)N[C@H](C(=O)N[C@@H](CCC(N)=O)C(=O)N[C@H](C(=O)N[C@@H](CCCCN)C(=O)N[C@H](C(=O)N[C@H](C(=O)N[C@@H](CC(=O)O)C(=O)O)[C@@H](C)O)[C@@H](C)CC)[C@@H](C)O)[C@@H](C)CC", "note": "[Teduglutide]", "values": [
      {"measurement": "Gut wet weight", "setting": "[2]; [11]", "result": "2.6 ± 0.2 ^### g"},
      {"measurement": "Large intestine length", "setting": "[2]; [11]", "result": "5.1 ± 0.6", "unit": "cm"},
      {"measurement": "Large intestine weight", "setting": "[2]; [11]", "result": "0.26 ± 0.03", "unit": "g"},
      {"measurement": "Small intestine length", "setting": "[2]; [11]", "result": "22.9 ± 1.6", "unit": "cm"},
      {"measurement": "Small intestine weight", "setting": "[2]; [11]", "result": "1.3 ± 0.2", "unit": "g"},
      {"measurement": "effect of single treatment on gut weight and length", "setting": "[2]; PoC study 2, Tables 5, 6, 8, 9", "result": "increases in gut wet weight (Table 5), small intestine weight (Table 6) and small intestine length (Table 8)"},
      {"measurement": "relative GLP-2 activity", "setting": "[3]", "result": 1.0},
      {"measurement": "Cumulative food intake", "setting": "[4]", "result": "31.82 ± 6.52", "unit": "g"},
      {"measurement": "Gut wet weight", "setting": "[5]", "result": "3.0 ± 0.3", "unit": "g"},
      {"measurement": "Oral glucose tolerance test AUC, 0-120 min", "setting": "[6]", "result": "890 ± 182", "unit": "mmol·min/L"}
    ]},
    {"molecule": "HAEGTFTSDVSSYLEGQAAKEFIAWLVKG (ligand, ends and bridges not checked)", "note": "[native human GLP-1]", "values": [
      {"measurement": "GLP-1R, EC50", "setting": "[7]", "result": 0.004, "unit": "nM"},
      {"measurement": "GLP-2R, EC50", "setting": "[8]", "result": "> 100", "unit": "nM"},
      {"measurement": "GLP-1R, EC50", "setting": "[9]", "result": 0.026, "unit": "nM"},
      {"measurement": "GLP-2R, EC50", "setting": "[10]", "result": "> 1000", "unit": "nM"}
    ]}
  ]
}
